These are literature values, as cited in patent publication US20250281435A1, “CHEWABLE GUMMY CONTAINING BETA-HYDROXY BETA-METHYLBUTYRIC ACID (HMB)” (Concept Matrix Solutions, priority 2024, published 2025).

For this data set the following is noted: oral ingestion.

Molecules are shown by their SMILES.

As to `CC(C)(O)CC(=O)O` [HMB, 3-hydroxy-3-methylbutanoic acid], the “time of peak plasma concentration after ingestion” value was 1 to 2 h.
